Results: patent US20240366581A1 (Hoffmann-La Roche Inc., priority 2022, published 2024)
Counter-ions that a name gives are not always drawn.

Assays:
Assay type in all cases: biochemical
[1] = target: SIK1 (Homo sapiens (Human), UniProt P57059); assay: SIK1 enzymatic activity assay, RapidFire mass spectrometry (CHK-peptide phosphorylation); details: 5 nM SIK1, CHK-peptide, ATP, 30 min pre-incubation, 45 min reaction, RapidFire MS; read-out: SIK1 RF IC50
Procedure: (§1) In the presence of SIK2 (resp. SIK1 or SIK3) and ATP the CHK-peptide ([…] with C-terminal arginine amide modification) were phosphorylated at one of the four feasible serine's. Only one phosphorylation is observed under the assay conditions. 60 nl of each compound dilution series (12 point; dilution factor 3, generally 30 μM to 170 pM) in DMSO were transferred by acoustic dispensing to the assay plate and 30 min pre-incubated (ambient temperature) after the addition of 5 μl SIK1 (5 nM) resp. 5 μl SIK2 (0.5 nM) or 7 μl SIK3 (1.5 nM) in assay-buffer (12.5 mM HEPES (pH 7.0), 10 mM magnesium acetate, 0.005% BSA). 10 μM CHK-peptide solution and 5 μl 100 μM ATP for SIK1 & SIK2 resp. 3 μl for SIK3 in assay-buffer were added and incubated ambient for 45 min. 40 μl 0.125% formic acid in water were added to quench the reaction. RapidFire (RF) Mass Spectrometry was utilized for data generation as described below. The multiple charged species (3-5 charges) for the phosphorylated and non-phosphorylated form measured by MRM (Multiple Reaction Monitoring; API5000 or 6500+) or EIC (Extracted Ion Current; QToF) were summed up and the ratio calculated (sum phosphorylated species/sum all species) for data evaluation. Normalization was performed by Genedata software based on the non-inhibition control DMSO and the commercially available SIK inhibitor @ 1 μM YKL-05-099 (CAS number 1936529-65-5). The results of the assay are expressed in half-maximal inhibitory concentrations (IC50s) and are summarized below in Table 1.
(§2) Samples were aspirated by vacuum for max. 600 ms and loaded to C4-cartridge (Agilent; #G9203A) for 3000 ms@1.5 ml/min with 0.1% formic acid in water. Afterwards samples were transferred to the API5000 (API6500+) or QToF mass spectrometer for 4000 ms@1.25 ml/min with 90% acetonitrile; 10% water; 0.007% TFA; 0.093 formic acid. The cartridge was reconditioned for additional 500 ms with 0.1% formic acid in water
(§3) All MS analyses using the following MS-setup in MRM mode: Electrospray positive; Ion Spray Voltage: 4000V; Temperature: 550° C.; Collision Gas: 5; Curtain Gas: 15; Gas1: 40; Gas 2: 42; EP: 10
(§4) All MS analyses using the following MS-setup in Mode MS: Dual AJS Electrospray positive; VCap: 3000V; Drying & Sheath gas: 340° C.@81/min; Nebulizer: 60 psig; Nozzle Voltage: 2000V; Fragmentor: 130V; Skimmer: 35V; Oct1 RF Vpp: 700V; Ref masses on@5spectra/s

[2] = target: SIK2 (Homo sapiens (Human), UniProt Q9H0K1); assay: SIK2 enzymatic activity assay, RapidFire mass spectrometry (CHK-peptide phosphorylation); details: 0.5 nM SIK2, CHK-peptide, ATP, 30 min pre-incubation, 45 min reaction, RapidFire MS; read-out: SIK2 RF IC50
SIK2, sequence (Q9H0K1 whole entry): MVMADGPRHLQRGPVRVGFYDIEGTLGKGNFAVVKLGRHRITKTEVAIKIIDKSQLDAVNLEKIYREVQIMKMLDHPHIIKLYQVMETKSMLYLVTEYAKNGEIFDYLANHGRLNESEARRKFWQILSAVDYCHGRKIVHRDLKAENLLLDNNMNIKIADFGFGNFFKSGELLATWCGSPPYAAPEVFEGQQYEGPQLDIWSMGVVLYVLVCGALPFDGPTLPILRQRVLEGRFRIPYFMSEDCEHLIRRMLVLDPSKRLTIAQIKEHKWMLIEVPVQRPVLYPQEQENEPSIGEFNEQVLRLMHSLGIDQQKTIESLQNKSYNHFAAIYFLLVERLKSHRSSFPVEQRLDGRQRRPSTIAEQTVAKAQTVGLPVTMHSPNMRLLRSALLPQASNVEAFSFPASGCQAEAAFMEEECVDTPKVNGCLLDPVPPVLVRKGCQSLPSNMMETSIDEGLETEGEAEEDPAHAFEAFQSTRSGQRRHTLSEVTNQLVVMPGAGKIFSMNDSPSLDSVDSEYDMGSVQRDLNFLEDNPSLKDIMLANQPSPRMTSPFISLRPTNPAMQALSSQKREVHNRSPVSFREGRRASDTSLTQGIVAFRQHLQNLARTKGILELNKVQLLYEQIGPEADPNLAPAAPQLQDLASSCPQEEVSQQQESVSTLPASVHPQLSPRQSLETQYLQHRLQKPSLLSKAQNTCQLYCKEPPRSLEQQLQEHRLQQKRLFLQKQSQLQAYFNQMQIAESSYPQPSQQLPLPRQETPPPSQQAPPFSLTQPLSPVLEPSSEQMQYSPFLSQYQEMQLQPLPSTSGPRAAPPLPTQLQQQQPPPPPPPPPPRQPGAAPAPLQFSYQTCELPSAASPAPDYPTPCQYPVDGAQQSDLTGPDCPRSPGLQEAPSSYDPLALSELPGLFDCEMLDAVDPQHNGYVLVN
Procedure: as §1, §2, §3, §4

[3] = target: SIK3 (Homo sapiens (Human), UniProt Q9Y2K2); assay: SIK3 enzymatic activity assay, RapidFire mass spectrometry (CHK-peptide phosphorylation); details: 1.5 nM SIK3, CHK-peptide, ATP, 30 min pre-incubation, 45 min reaction, RapidFire MS; read-out: SIK3 RF IC50
SIK3, sequence (Q9Y2K2 whole entry): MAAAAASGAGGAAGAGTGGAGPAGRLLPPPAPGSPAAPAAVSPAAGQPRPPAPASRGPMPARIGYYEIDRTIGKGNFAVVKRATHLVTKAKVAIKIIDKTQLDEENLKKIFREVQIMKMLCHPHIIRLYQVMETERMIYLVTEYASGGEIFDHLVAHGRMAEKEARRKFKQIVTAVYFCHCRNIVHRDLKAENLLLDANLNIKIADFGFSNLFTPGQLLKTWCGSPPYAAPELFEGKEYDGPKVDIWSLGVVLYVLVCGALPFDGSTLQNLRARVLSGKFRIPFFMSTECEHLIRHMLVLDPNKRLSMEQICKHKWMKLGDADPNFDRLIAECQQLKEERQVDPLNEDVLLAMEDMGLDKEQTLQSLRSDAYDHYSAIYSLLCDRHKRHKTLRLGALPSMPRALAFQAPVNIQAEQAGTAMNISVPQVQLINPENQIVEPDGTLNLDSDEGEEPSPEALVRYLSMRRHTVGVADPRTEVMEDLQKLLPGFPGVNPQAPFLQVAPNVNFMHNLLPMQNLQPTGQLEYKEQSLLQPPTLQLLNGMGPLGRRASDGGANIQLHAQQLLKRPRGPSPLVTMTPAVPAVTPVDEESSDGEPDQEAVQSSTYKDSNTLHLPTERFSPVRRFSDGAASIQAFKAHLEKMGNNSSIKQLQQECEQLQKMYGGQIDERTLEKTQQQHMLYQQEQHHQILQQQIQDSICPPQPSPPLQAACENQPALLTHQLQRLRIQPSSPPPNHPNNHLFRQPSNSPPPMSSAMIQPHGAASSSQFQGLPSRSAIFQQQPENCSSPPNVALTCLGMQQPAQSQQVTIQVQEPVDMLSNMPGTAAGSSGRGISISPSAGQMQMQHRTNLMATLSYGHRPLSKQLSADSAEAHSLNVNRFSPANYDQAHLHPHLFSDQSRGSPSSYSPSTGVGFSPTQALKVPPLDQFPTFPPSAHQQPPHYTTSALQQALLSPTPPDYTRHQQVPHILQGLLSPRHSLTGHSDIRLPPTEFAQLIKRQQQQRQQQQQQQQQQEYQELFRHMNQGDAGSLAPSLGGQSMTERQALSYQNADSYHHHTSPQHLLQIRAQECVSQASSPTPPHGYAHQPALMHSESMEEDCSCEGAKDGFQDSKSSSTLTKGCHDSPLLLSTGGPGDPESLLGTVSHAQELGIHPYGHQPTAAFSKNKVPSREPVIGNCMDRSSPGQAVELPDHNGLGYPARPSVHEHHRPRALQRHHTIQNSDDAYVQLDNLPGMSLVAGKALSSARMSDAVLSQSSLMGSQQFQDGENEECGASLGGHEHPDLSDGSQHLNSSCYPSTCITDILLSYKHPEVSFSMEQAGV
Procedure: as §1, §2, §3, §4

SIK1, sequence (P57059 whole entry): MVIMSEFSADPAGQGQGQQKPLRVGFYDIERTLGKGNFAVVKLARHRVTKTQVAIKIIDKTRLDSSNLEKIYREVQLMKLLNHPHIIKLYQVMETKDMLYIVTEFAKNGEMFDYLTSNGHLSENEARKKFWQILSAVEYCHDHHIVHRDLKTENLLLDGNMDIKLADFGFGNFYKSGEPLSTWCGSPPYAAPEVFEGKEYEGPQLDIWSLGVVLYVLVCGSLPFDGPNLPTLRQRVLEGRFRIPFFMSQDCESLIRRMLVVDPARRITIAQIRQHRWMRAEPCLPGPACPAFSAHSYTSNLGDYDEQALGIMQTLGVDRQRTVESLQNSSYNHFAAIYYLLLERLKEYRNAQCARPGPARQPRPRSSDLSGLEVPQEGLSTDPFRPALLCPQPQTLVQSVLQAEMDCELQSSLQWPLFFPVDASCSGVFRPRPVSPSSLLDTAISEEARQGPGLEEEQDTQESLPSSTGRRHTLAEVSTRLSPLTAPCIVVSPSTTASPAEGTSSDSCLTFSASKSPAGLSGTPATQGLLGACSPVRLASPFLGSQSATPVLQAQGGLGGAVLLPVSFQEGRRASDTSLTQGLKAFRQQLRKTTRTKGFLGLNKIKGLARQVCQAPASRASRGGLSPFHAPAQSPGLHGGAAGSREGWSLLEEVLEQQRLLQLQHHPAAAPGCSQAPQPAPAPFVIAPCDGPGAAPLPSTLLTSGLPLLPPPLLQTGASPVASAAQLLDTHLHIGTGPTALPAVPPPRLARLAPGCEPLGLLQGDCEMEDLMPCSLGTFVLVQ

Structure (SMILES) | IC50 [1] [nM] | IC50 [2] [nM] | IC50 [3] [nM]
COc1cc2ncn(-c3ccc(C(N)=O)c(Oc4ccccc4Cl)n3)c2cc1OC [Example 1, 2-(2-chlorophenoxy)-6-(5,6-dimethoxybenzimidazol-1-yl)pyridine-3-carboxamide] | 15.1 | 14.2 | 57.2
COc1cc2ncn(-c3ccc(C(N)=O)c(Nc4ccccc4)n3)c2cc1OC [Example 2, 6-(5,6-Dimethoxy-benzoimidazol-1-yl)-2-phenylamino-nicotinamide] | 14 | 3.8 | 97.2
COc1cc2ncn(-c3ccc(C(N)=O)c(NCc4ccccc4)n3)c2cc1OC [Example 3, 2-(benzylamino)-6-(5,6-dimethoxybenzimidazol-1-yl)pyridine-3-carboxamide] | 15.5 | 7.8 | 156
COc1cc2ncn(-c3ccc(C(N)=O)c(NC(CCN)c4ccsc4)n3)c2cc1OC (stereo not shown) [Example 4, 2-[[3-amino-1-(3-thienyl)propyl]amino]-6-(5,6-dimethoxybenzimidazol-1-yl)pyridine-3-carboxamide hydrochloride] | 3.4 | 3.3 | 114
COc1cc2ncn(-c3ccc(C(N)=O)c(NC(CCN)c4ccccc4)n3)c2cc1OC (stereo not shown) [Example 5, 2-[(3-amino-1-phenyl-propyl)amino]-6-(5,6-dimethoxybenzimidazol-1-yl)pyridine-3-carboxamide hydrochloride] | 7.4 | 9.5 | 331
COc1cc2ncn(-c3ccc(C(N)=O)c(NCCc4ccccc4)n3)c2cc1OC [Example 6, 6-(5,6-dimethoxybenzimidazol-1-yl)-2-(2-phenylethylamino)pyridine-3-carboxamide] | 2.8 | 2.5 | 39.9
COc1cc2ncn(-c3ccc(C(N)=O)c(NCc4cccs4)n3)c2cc1OC [Example 7, 6-(5,6-dimethoxybenzimidazol-1-yl)-2-(2-thienylmethylamino)pyridine-3-carboxamide] | 29.7 | 18.2 | 188
COc1cc2ncn(-c3ccc(C(N)=O)c(NCc4ccc(Cl)cc4)n3)c2cc1OC [Example 8, 2-[(4-chlorophenyl)methylamino]-6-(5,6-dimethoxybenzimidazol-1-yl)pyridine-3-carboxamide] | 27.4 | 16.2 | 260
COc1cc2ncn(-c3ccc(C(N)=O)c(NCCc4cccc(Cl)c4)n3)c2cc1OC [Example 9, 2-[2-(3-chlorophenyl)ethylamino]-6-(5,6-dimethoxybenzimidazol-1-yl)pyridine-3-carboxamide] | 6.2 | 6.5 | 146
COc1cc2ncn(-c3ccc(C(N)=O)c(NC(CN)c4cccc(Cl)c4)n3)c2cc1OC (stereo not shown) [Example 10, 2-[[2-amino-1-(3-chlorophenyl)ethyl]amino]-6-(5,6-dimethoxybenzimidazol-1-yl)pyridine-3-carboxamide hydrochloride] | 1.7 | 1.2 | 44.9
COc1cc2ncn(-c3ccc(C(N)=O)c(NC(CCN)c4cccc(Cl)c4)n3)c2cc1OC (stereo not shown) [Example 11, 2-[[3-amino-1-(3-chlorophenyl)propyl]amino]-6-(5,6-dimethoxybenzimidazol-1-yl)pyridine-3-carboxamide hydrochloride] | 6.3 | 15.8 | 206
COc1cc2ncn(-c3ccc(C(N)=O)c(NC(CN)c4ccsc4)n3)c2cc1OC (stereo not shown) [Example 12, 2-[[2-amino-1-(3-thienyl)ethyl]amino]-6-(5,6-dimethoxybenzimidazol-1-yl)pyridine-3-carboxamide hydrochloride] | 1.7 | 2.2 | 69.2
COC(=O)c1ccc(-n2cnc3cc(OC)c(OC)cc32)nc1-c1cccc(Cl)c1 [Example 13, Methyl 2-(3-chlorophenyl)-6-(5,6-dimethoxy-1H-benzo[d]imidazol-1-yl)nicotinate] | 22500 | 995 | > 30000
COC(=O)c1ccc(-n2cnc3cc(OC)c(OC)cc32)nc1N1CCCCC1=O [Example 14, Methyl 6-(5,6-dimethoxy-1H-benzo[d]imidazol-1-yl)-2-(2-oxopiperidin-1-yl)nicotinate] | 7480 | 5150 | 18000
COC(=O)c1ccc(-n2cnc3cc(OC)c(OC)cc32)nc1N1CCCC1=O [Example 15, Methyl 6-(5,6-dimethoxy-1H-benzo[d]imidazol-1-yl)-2-(2-oxopyrrolidin-1-yl)nicotinate] | 1570 | 828 | 4000
COc1cc2ncn(-c3ccc(C(=O)O)c(N4CCCCC4)n3)c2cc1OC [Example 16, 6-(5,6-Dimethoxy-1H-benzo[d]imidazol-1-yl)-2-(piperidin-1-yl)nicotinic acid] | 260 | 241 | 1670
Cc1ccc(Nc2ccc3ncn(-c4ccc(C(N)=O)c(OC(C)C(F)F)n4)c3c2)nn1 (stereo not shown) [Example 24] | 605 | 206 | 95.7

More lines, now with the values ahead:

IC50 [1] [nM] | IC50 [2] [nM] | IC50 [3] [nM] | Structure (SMILES)
14900 | 5070 | 21600 | CCNC(=O)c1ccc(-n2cnc3cc(OC)c(OC)cc32)nc1-c1cccc(C#N)c1 [Example 17, 2-(3-cyanophenyl)-6-(5,6-dimethoxybenzimidazol-1-yl)-N-ethyl-pyridine-3-carboxamide]
9470 | 5770 | 13500 | CNC(=O)c1ccc(-n2cnc3cc(OC)c(OC)cc32)nc1-c1cccc(C#N)c1 [Example 18, 2-(3-Cyanophenyl)-6-(5,6-dimethoxybenzimidazol-1-yl)-N-methyl-pyridine-3-carboxamide; Formic Acid]
1770 | 5740 | > 10000 | COc1cc2ncn(-c3ccc(C(=O)NC4CC4)c(-c4cccc(C#N)c4)n3)c2cc1OC [Example 19, 2-(3-Cyanophenyl)-N-cyclopropyl-6-(5,6-dimethoxybenzimidazol-1-yl)pyridine-3-carboxamide]
12100 | 6240 | > 30000 | COc1cc2ncn(-c3ccc(C(=O)NCC(F)(F)F)c(-c4cccc(C#N)c4)n3)c2cc1OC [Example 20, 2-(3-Cyanophenyl)-6-(5,6-dimethoxybenzimidazol-1-yl)-N-(2,2,2-trifluoroethyl)pyridine-3-carboxamide]
659 | 878 | 3500 | COc1cc2ncn(-c3ccc(C(N)=O)c(-c4cccc(C#N)c4)n3)c2cc1OC [Example 21, 2-(3-Cyanophenyl)-6-(5,6-dimethoxybenzimidazol-1-yl)pyridine-3-carboxamide]
19800 | 7410 | 12200 | Cc1cc(C#N)nn1-c1nc(-n2cnc3cc(OCCN4CCOCC4)ccc32)ccc1C(N)=O [Example 22, 2-(3-Cyano-5-methyl-pyrazol-1-yl)-6-[5-(2-morpholinoethoxy)benzimidazol-1-yl]pyridine-3-carboxamide]
361 | 15.2 | 4.9 | Cc1ccc(Nc2ccc3c(c2)ncn3-c2ccc(C(N)=O)c(OC(C)C(F)F)n2)nn1 (stereo not shown) [Example 23, 2-(2,2-Difluoro-1-methyl-ethoxy)-6-[5-[(6-methylpyridazin-3-yl)amino]benzimidazol-1-yl]pyridine-3-carboxamide]
1460 | 86.7 |  | COc1cc(-n2cnc3cc(Nc4ccc(C)nn4)ccc32)nc(OC)c1C(C)=O [Example 29, 1-[2,4-dimethoxy-6-[5-[(6-methylpyridazin-3-yl)amino]benzimidazol-1-yl]-3-pyridyl]ethanone]
547 | 816 |  | CC(=O)c1ccc(-n2cnc3cc4c(cc32)NCC4)nc1-n1nc(C#N)cc1C [Example 30, 1-[3-acetyl-6-(6,7-dihydro-5H-pyrrolo[3,2-f]benzimidazol-3-yl)-2-pyridyl]-5-methyl-pyrazole-3-carbonitrile]
